Data as given in patent publication US12576099B2, “Ribose-modified cap analog and use thereof” (Beijing Youcare Kechuang Pharmaceutical Technology Co., Ltd., priority 2024, dated 2026).

Tests used:
[1] = Characterization of lipid nanoparticles encapsulating Fluc-mRNA prepared from different cap structures; type: physicochemical; conditions: for Particle size: LNP (YK-009/DSPC/cholesterol/DMG-PEG2000) with Fluc-mRNA transcribed using the named cap analog; for PDI: LNP with Fluc-mRNA transcribed using the named cap analog; for EE: encapsulation efficiency of LNP with Fluc-mRNA transcribed using the named cap analog
Outline: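 LNPs of YK-009/DSPC/cholesterol/DMG-PEG2000 (49:10:39.5:1.5) made by microfluidic mixing with Fluc-mRNA in 50 mM citrate pH 4, lipid:mRNA ~15:1 w/w, then ultrafiltered into PBS and 0.2 μm filtered. Size and PDI by DLS (90°, 25 °C, triplicate); encapsulation efficiency by RiboGreen assay.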

BALB/C mice = test: In vivo imaging of Fluc-mRNA LNP expression in mice; conditions: for Total radiation intensity: 5 μg Fluc-mRNA LNP intramuscular, mice
Procedure: The LNP preparation containing 5 μg of cap analog-transcribed Fluc-mRNA was intramuscularly injected into female BALB/C mice aged 4 to 6 weeks and weighing 17 to 19 g. At specific time points after administration (6 hours, 12 hours, 24 hours, 48 hours, 96 hours, and 168 hours), the mice were intraperitoneally injected with fluorescence imaging substrate. The mice were then allowed to move freely for 5 minutes, followed by detection of the total radiation intensity of the protein expressed by LNP-carrying mRNA in the mice using an IVIS Spectrum small-animal in vivo imaging system (corresponding to the amount of protein expression).
In the in vivo imaging experiments in mice, the multiple of the total radiation intensity for each group of mice relative to the m6A group is shown in Table 8 (where the total radiation intensity is represented as the given value×10^8 p/s).

Compound | Particle size [1] | PDI [1] | EE [1] | Multiple of total radiation intensity relative to m6A (BALB/C mice; 6 h) | Total radiation intensity (BALB/C mice; 6 h) | Multiple of total radiation intensity relative to m6A (BALB/C mice; 12 h) | Total radiation intensity (BALB/C mice; 12 h) | Multiple of total radiation intensity relative to m6A (BALB/C mice; 24 h) | Total radiation intensity (BALB/C mice; 24 h) | Multiple of total radiation intensity relative to m6A (BALB/C mice; 48 h) | Total radiation intensity (BALB/C mice; 48 h) | Multiple of total radiation intensity relative to m6A (BALB/C mice; 96 h) | Total radiation intensity (BALB/C mice; 96 h) | Total radiation intensity (BALB/C mice; 168 h)
COC[C@]1(COP(=O)(O)OP(=O)(O)OP(=O)(O)OC[C@H]2O[C@@H](n3cnc4c(N)ncnc43)[C@H](OC)[C@@H]2OP(=O)(O)OC[C@H]2O[C@@H](n3cnc4c(=O)[nH]c(N)nc43)[C@H](O)[C@@H]2O)O[C@@H]([n+]2cn(C)c3c(=O)[nH]c(N)nc32)[C@H](O)[C@@H]1O [YK-CAP-117] | 72.56 nm | 0.044 | 94.3% | 3.8 | 8.99 ×108 p/s | 3.8 | 8.00 ×108 p/s | 3.2 | 2.08 ×108 p/s | 3.3 | 1.73 ×108 p/s | 0.9 | 0.35 ×108 p/s | 0.02 ×108 p/s
CO[C@@H]1[C@H](OP(=O)(O)OC[C@H]2O[C@@H](n3cnc4c(=O)[nH]c(N)nc43)[C@H](O)[C@@H]2O)[C@@H](COP(=O)(O)OP(=O)(O)OP(=O)(O)OC[C@@]2(CF)O[C@@H]([n+]3cn(C)c4c(=O)[nH]c(N)nc43)[C@H](O)[C@@H]2O)O[C@H]1n1cnc2c(N)ncnc21 [YK-CAP-118] | 75.84 nm | 0.055 | 97.2% | 3.0 | 7.06 ×108 p/s | 3.0 | 6.28 ×108 p/s | 3.1 | 2.03 ×108 p/s | 2.6 | 1.33 ×108 p/s | 1.2 | 0.35 ×108 p/s | 0.02 ×108 p/s
CO[C@@H]1[C@H](OP(=O)(O)OC[C@H]2O[C@@H](n3cnc4c(=O)[nH]c(N)nc43)[C@H](O)[C@@H]2O)[C@@H](COP(=O)(O)OP(=O)(O)OP(=O)(O)OC[C@@]2(C(F)F)O[C@@H]([n+]3cn(C)c4c(=O)[nH]c(N)nc43)[C@H](O)[C@@H]2O)O[C@H]1n1cnc2c(N)ncnc21 [YK-CAP-119] | 82.45 nm | 0.057 | 94.6% | 3.2 | 7.47 ×108 p/s | 3.1 | 6.65 ×108 p/s | 3.3 | 2.15 ×108 p/s | 2.4 | 1.26 ×108 p/s | 1.3 | 0.25 ×108 p/s | 0.02 ×108 p/s
CO[C@@H]1[C@H](OP(=O)(O)OC[C@H]2O[C@@H](n3cnc4c(=O)[nH]c(N)nc43)[C@H](O)[C@@H]2O)[C@@H](COP(=O)(O)OP(=O)(O)OP(=O)(O)OC[C@@]2(OC)O[C@@H]([n+]3cn(C)c4c(=O)[nH]c(N)nc43)[C@H](O)[C@@H]2O)O[C@H]1n1cnc2c(N)ncnc21 [compound 5227, reference compound] | 83.34 nm | 0.028 | 94.9% | 1.0 | 2.38 ×108 p/s | 0.7 | 1.45 ×108 p/s | 0.8 | 0.53 ×108 p/s | 0.9 | 0.48 ×108 p/s | 0.9 | 0.07 ×108 p/s | 0.02 ×108 p/s
